Results reported in patent publication US20220232831A1, “NOVEL NON-CODING HETEROCYCLIC AMINO ACIDS (NCHAA) AND THEIR USE AS HERBICIDES” (Fortephest Ltd., priority 2019, published 2022).

Experiments:
[1] = tested on: Romaine lettuce (Lactuca sativa L.) plants; assay: Post-emergency herbicidal activity on Romaine lettuce plants; type: in vivo; details: Romaine lettuce at stage 2 to 3 leaves; compound in 0.1% Silwet, up to 0.5%; visual evaluation vs control plants
In short: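 Plants at the 2 to 3 leaf stage were treated with compound in 0.1% aqueous Silwet at 0.0% (Control) to 0.5%, with 20 to 40 plants per test. Vigor, height and leaf color were scored 0 (dead) to 100 (healthy) at 7, 14 and 21 DAA, and aboveground wet weight was measured.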

Marianum (Thistle) = assay: Herbicidal activity on development of weeds and crops (pot test); type: in vivo, Silybum marianum; details: 32 days after application, 0 = dead, 100% = healthy
Method: (§1) The experiment included 225 pots. Weed seeds were sawn in 0.3-liter pots, containing medium-heavy clay-loam soil from Newe Ya'ar Research Center organic fields (55% clay, 23% silt, 20% sand, 2% organic matter, pH 7.1). The experiment was conducted in a completely randomized design. Each treatment was replicated 5 times (5 pots). The herbicides were applied at 200 L/ha with a motorized sprayer equipped with a Tee Jet 8001E nozzle (Spraying Systems Co., North Ave., Wheaton, Ill. 60188, USA) and operated at a pressure of 300 kPa. The pots were transferred to a glasshouse 24 hours after herbicide application and were sprinkler irrigated to field capacity of the soil. The plants were grown in the glasshouse during the entire experiment. Plant development at 6, 12, 19, 26 and 32 days after application (DAA) were evaluated on a scale of 0 to 100%, in which 0 represents dead plants and 100% represents healthy plants according to plant vigor, height, and leaf color.
(§2) Phalaris minor (Cannarygrass); Setaria verticillata (Bristlegrass); Solanum nigrum (Black nightshade) Sinapis arvensis (Mustard); Silybum marianum (Thistle); Chenopodium album (Lambsquarter); Amaranthus (Pigweed); Fodder corn; Avena sativa (Cultured oats.
(§3) Plant development was evaluated on a scale of 0 to 100%, in which 0 represents dead plants and 100% represents healthy plants according to plant vigor, height, and leaf color.

[2] = tested on: Seeds of Lettuce R. (Super-Jericho); assay: Filter paper bioassay with lettuce seeds (germination and early plant development); type: in vivo; details: lettuce seeds on filter paper; 1, 0.1, 0.01, 0.001 mM; radicle and shoots assessed after 6 days
In short: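 Lettuce seeds (10 per plate) were placed on filter paper with 2.0 ml water or test material at 1, 0.1, 0.01 or 0.001 mM. Plates were kept dark for 48 h, then grown 4 days at 22° C under a 6/18 dark/light cycle. At day 6, radicle and shoot development was scored visually; MEC is the lowest concentration causing deviation from control.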

[3] = tested on: Amaranthus blitoides (Pigweed); assay: Herbicidal activity on development of weeds and crops (pot test); type: in vivo; details: 32 days after application, 0 = dead, 100% = healthy
Method: as §1, §2, §3

Fodder Corn = assay: as above; type: in vivo; details: Fodder corn (crop); 32 days after application; 0 = dead, 100% = healthy
Method: as §1, §2, §3

[4] = tested on: Avena sativa (Cultured oats); assay: as above; type: in vivo; details: Avena sativa (crop); 32 days after application; 0 = dead, 100% = healthy
Method: as §1, §2, §3

[5] = tested on: Setaria verticillata (Bristlegrass); assay: as above; type: in vivo; details: 32 days after application, 0 = dead, 100% = healthy
Method: as §1, §2, §3

[6] = tested on: Sinapis arvensis (Mustard); assay: as above; type: in vivo; details: 32 days after application, 0 = dead, 100% = healthy
Method: as §1, §2, §3

[7] = tested on: Chenopodium album (Lambsquarter); assay: as above; type: in vivo; details: 32 days after application, 0 = dead, 100% = healthy
Method: as §1, §2, §3

[8] = tested on: Phalaris minor (Cannarygrass); assay: as above; type: in vivo; details: 32 days after application, 0 = dead, 100% = healthy
Method: as §1, §2, §3

[9] = tested on: Solanum nigrum (Black nightshade); assay: as above; type: in vivo; details: 32 days after application, 0 = dead, 100% = healthy
Method: as §1, §2, §3

Q: Which results are given for `NC(Cc1ccnc(Br)c1)C(=O)O` (stereo not drawn) [Code 632, 2-amino-3-(2-bromopyridin-4-yl)propanoic acid]?
A: post-emergency herbicidal activity (Activity Index: plant's development vs Control) [1]: Maximal (Less than 15); Plants' Development (% of Control group) following treatment with NCHAAs (Marianum (Thistle)): 15%; Minimal Effective Concentration (MEC) as activity score, seeds germination & early plants development [2]: Strong (0.1 mM); Plants' Development (% of Control group) following treatment with NCHAAs [3]: 100%; Plants' Development (% of Control group) following treatment with NCHAAs (Fodder Corn): 100%; Plants' Development (% of Control group) following treatment with NCHAAs [4]: 100%; Plants' Development (% of Control group) following treatment with NCHAAs [5]: 20%; Plants' Development (% of Control group) following treatment with NCHAAs [6]: 80%; Plants' Development (% of Control group) following treatment with NCHAAs [7]: 20%; Plants' Development (% of Control group) following treatment with NCHAAs [8]: 10%; Plants' Development (% of Control group) following treatment with NCHAAs [9]: 25%

Q: `NC(Cc1cc(Cl)sc1Cl)C(=O)O` (stereo not drawn) [Code 517, 2-amino-3-(2,5-dichlorothiophen-3-yl)propanoic acid] was tested. Which “post-emergency herbicidal activity (Activity Index: plant's development vs Control)” value [1] did it give?
A: Maximal (Less than 15)

Q: And the “Plants' Development (% of Control group) following treatment with NCHAAs” value (Marianum (Thistle))?
A: 35%

Q: And the “Minimal Effective Concentration (MEC) as activity score, seeds germination & early plants development” value (from here on “Minimal Effective Concentration (MEC)”) [2]?
A: Maximal (0.01 mM and less)

Q: And the “Plants' Development (% of Control group) following treatment with NCHAAs” value [3]?
A: 10%

Q: What about the “Plants' Development (% of Control group) following treatment with NCHAAs” value (Fodder Corn) of the same compound?
A: 90%

Q: What about the “Plants' Development (% of Control group) following treatment with NCHAAs” value [4] of the same compound?
A: 100%

Q: What about the “Plants' Development (% of Control group) following treatment with NCHAAs” value [5] of the same compound?
A: 100%

Q: And the “Plants' Development (% of Control group) following treatment with NCHAAs” value [6]?
A: 0%

Q: And the “Plants' Development (% of Control group) following treatment with NCHAAs” value [7]?
A: 10%

Q: What about the “Plants' Development (% of Control group) following treatment with NCHAAs” value [8] of the same compound?
A: 60%

Q: What about the “Plants' Development (% of Control group) following treatment with NCHAAs” value [9] of the same compound?
A: 15%

Q: What does the source list for `COC(=O)C(N)Cc1ccnc(Br)c1` (stereo not drawn) [Code 666]?
A: post-emergency herbicidal activity (Activity Index: plant's development vs Control) [1]: Maximal (Less than 15); Minimal Effective Concentration (MEC) as activity score, seeds germination & early plants development [2]: Strong (0.1 mM)

Q: With `NC(Cc1ncsc1Cl)C(=O)O` (stereo not drawn) [Code 528] as the compound, how does the “post-emergency herbicidal activity (Activity Index: plant's development vs Control)” value [1] read?
A: Weak (More than 75)

Q: What about the “Minimal Effective Concentration (MEC)” value [2] of the same compound?
A: Moderate (1 mM)

Q: Which “post-emergency herbicidal activity (Activity Index: plant's development vs Control)” value [1] does the source give for `NC(Cc1csc([N+](=O)[O-])c1)C(=O)O` (stereo not drawn) [Code 553] here?
A: Weak (More than 75)

Q: And the “Minimal Effective Concentration (MEC)” value [2]?
A: Weak (More than 1 mM)

Q: With `CCOC(=O)C(N)CNS(=O)(=O)c1cc(Br)sc1Br` (stereo not drawn) [Code 580] as the compound, how does the “post-emergency herbicidal activity (Activity Index: plant's development vs Control)” value [1] read?
A: Very Strong (From 15 to 25)

Q: What about the “Minimal Effective Concentration (MEC)” value [2] of the same compound?
A: Strong (0.1 mM)

Q: Which results are given for `CN(C)c1cc(CC(N)C(=O)O)ccn1` (stereo not drawn) [Code 631]?
A: post-emergency herbicidal activity (Activity Index: plant's development vs Control) [1]: Weak (More than 75); Minimal Effective Concentration (MEC) as activity score, seeds germination & early plants development [2]: Weak (More than 1 mM)

Q: What does the source list for `NC(Cc1cc(Cl)cnc1Cl)C(=O)O` (stereo not drawn) [Code 624]?
A: post-emergency herbicidal activity (Activity Index: plant's development vs Control) [1]: Moderate (From 50 to 75); Minimal Effective Concentration (MEC) as activity score, seeds germination & early plants development [2]: Moderate (1 mM)

Q: With `CCOC(=O)C(Cc1nc[nH]n1)NC(=O)OCc1ccccc1` (stereo not drawn) [Code 714] as the compound, how does the “post-emergency herbicidal activity (Activity Index: plant's development vs Control)” value [1] read?
A: Weak (More than 75)

Q: What about the “Minimal Effective Concentration (MEC)” value [2] of the same compound?
A: Moderate (1 mM)

Q: Which results are given for `CCCCOC(=O)C(N)Cc1ccsc1` (stereo not drawn) [Code 513]?
A: post-emergency herbicidal activity (Activity Index: plant's development vs Control) [1]: Very Strong (From 15 to 25); Minimal Effective Concentration (MEC) as activity score, seeds germination & early plants development [2]: Strong (0.1 mM)

Q: Which results are given for `Cl.Cl.NC(Cc1ncccn1)C(=O)O` (stereo not drawn) [Code 618]?
A: post-emergency herbicidal activity (Activity Index: plant's development vs Control) [1]: Weak (More than 75); Minimal Effective Concentration (MEC) as activity score, seeds germination & early plants development [2]: Weak (More than 1 mM)

Q: With `NC(Cc1cccs1)C(=O)O` (stereo not drawn) [Code 501] as the compound, how does the “post-emergency herbicidal activity (Activity Index: plant's development vs Control)” value [1] read?
A: Strong (From 25 to 50)

Q: What about the “Minimal Effective Concentration (MEC)” value [2] of the same compound?
A: Maximal (0.01 mM and less)
